Data reported in ChEMBL document CHEMBL3627616, “New multifunctional melatonin-derived benzylpyridinium bromides with potent cholinergic, antioxidant, and neuroprotective properties as innovative drugs for Alzheimer's disease” (Eur J Med Chem, 2015).
Calls of active or inactive are those of the source. The rule behind the calls is not given here.

system: not listed separately; experiment: Antioxidant activity assessed as trolox equivalent of AAPH radical scavenging activity preincubated for 15 mins followed by addition of AAPH solution measured for 80 mins by ORAC-FL method; format: physicochemical; conditions: not given

SMILES | Activity
COc1ccc2[nH]cc(CCNC(=O)c3cc[n+](Cc4ccccc4F)cc3)c2c1.[Br-] | 2.02 umolequiv/umol
COc1ccc2[nH]cc(CCNC(=O)c3cc[n+](Cc4ccc(OC(=O)N(C)C)cc4)cc3)c2c1.[Br-] | 2.04 umolequiv/umol
COc1ccc2[nH]cc(CCNC(=O)c3cc[n+](Cc4cccc(F)c4)cc3)c2c1.[Br-] | 1.87 umolequiv/umol
Cc1ccc(C[n+]2ccc(C(=O)NCCc3c[nH]c4ccccc34)cc2)cc1.[Br-] | 1.72 umolequiv/umol
O=C(NCCc1c[nH]c2ccccc12)c1ccc[n+](Cc2ccccc2F)c1.[Br-] | 1.47 umolequiv/umol
O=C(NCCc1c[nH]c2ccccc12)c1cc[n+](Cc2ccc(F)cc2)cc1.[Br-] | 1.32 umolequiv/umol
COc1ccc2[nH]cc(CCNC(=O)CCc3cc[n+](Cc4cccc(F)c4)cc3)c2c1.[Br-] | 2.45 umolequiv/umol
O=C(NCCc1c[nH]c2ccccc12)c1cc[n+](Cc2cccc(F)c2)cc1.[Br-] | 1.41 umolequiv/umol
COc1ccc2[nH]cc(CCNC(=O)CCc3cc[n+](Cc4ccccc4F)cc3)c2c1.[Br-] | 2.51 umolequiv/umol
O=C(NCCc1c[nH]c2ccccc12)c1cc[n+](Cc2ccccc2F)cc1.[Br-] | 1.14 umolequiv/umol
O=C(NCCc1c[nH]c2ccccc12)c1cc[n+](Cc2ccccc2)cc1.[Br-] | 1.29 umolequiv/umol
Cc1cccc(C[n+]2ccc(C(=O)NCCc3c[nH]c4ccccc34)cc2)c1.[Br-] | 1.36 umolequiv/umol
COc1ccc2[nH]cc(CCNC(=O)CCc3cc[n+](Cc4ccc(F)cc4)cc3)c2c1.[Br-] | 2.49 umolequiv/umol
COc1ccc2[nH]cc(CCNC(=O)c3cc[n+](Cc4ccc(F)cc4)cc3)c2c1.[Br-] | 2.09 umolequiv/umol
COc1ccc2[nH]cc(CCNC(=O)/C=C/c3cc[n+](Cc4ccc(F)cc4)cc3)c2c1.[Br-] | 3.51 umolequiv/umol
COc1ccc2[nH]cc(CCNC(=O)/C=C/c3cc[n+](Cc4cccc(F)c4)cc3)c2c1.[Br-] | 3.41 umolequiv/umol
COc1ccc2[nH]cc(CCNC(=O)/C=C/c3cc[n+](Cc4ccccc4F)cc3)c2c1.[Br-] | 3.66 umolequiv/umol
N#Cc1ccc(C[n+]2ccc(C(=O)NCCc3c[nH]c4ccccc34)cc2)cc1.[Br-] | 1.56 umolequiv/umol
COc1ccc2[nH]cc(CCNC(C)=O)c2c1 [MELATONIN] | 2.34 umolequiv/umol
O=C(NCCc1c[nH]c2ccccc12)c1ccc[n+](Cc2ccccc2)c1.[Br-] | 1.49 umolequiv/umol

species: Homo sapiens; experiment: Selectivity ratio of IC50 for human serum BuChE to IC50 for human recombinant AChE; conditions: not given

SMILES | Ratio IC50
COc1ccc2[nH]cc(CCNC(=O)c3cc[n+](Cc4ccccc4F)cc3)c2c1.[Br-] | 2.1
COc1ccc2[nH]cc(CCNC(=O)c3cc[n+](Cc4ccc(OC(=O)N(C)C)cc4)cc3)c2c1.[Br-] | 0.06
COc1ccc2[nH]cc(CCNC(=O)c3cc[n+](Cc4cccc(F)c4)cc3)c2c1.[Br-] | 2.1
Cc1ccc(C[n+]2ccc(C(=O)NCCc3c[nH]c4ccccc34)cc2)cc1.[Br-] | 1.6
O=C(NCCc1c[nH]c2ccccc12)c1ccc[n+](Cc2ccccc2F)c1.[Br-] | 0.01
O=C(NCCc1c[nH]c2ccccc12)c1cc[n+](Cc2ccc(F)cc2)cc1.[Br-] | 1.4
COc1ccc2[nH]cc(CCNC(=O)CCc3cc[n+](Cc4cccc(F)c4)cc3)c2c1.[Br-] | 1.6
O=C(NCCc1c[nH]c2ccccc12)c1cc[n+](Cc2cccc(F)c2)cc1.[Br-] | 1.3
COc1ccc2[nH]cc(CCNC(=O)CCc3cc[n+](Cc4ccccc4F)cc3)c2c1.[Br-] | 1.6
O=C(NCCc1c[nH]c2ccccc12)c1cc[n+](Cc2ccccc2F)cc1.[Br-] | 1.3
O=C(NCCc1c[nH]c2ccccc12)c1cc[n+](Cc2ccccc2)cc1.[Br-] | 0.67
Cc1cccc(C[n+]2ccc(C(=O)NCCc3c[nH]c4ccccc34)cc2)c1.[Br-] | 2.1
COc1ccc2[nH]cc(CCNC(=O)CCc3cc[n+](Cc4ccc(F)cc4)cc3)c2c1.[Br-] | 1.1
COc1ccc2[nH]cc(CCNC(=O)c3cc[n+](Cc4ccc(F)cc4)cc3)c2c1.[Br-] | 1.5
COc1ccc2[nH]cc(CCNC(=O)/C=C/c3cc[n+](Cc4ccc(F)cc4)cc3)c2c1.[Br-] | 3.4
COc1ccc2[nH]cc(CCNC(=O)/C=C/c3cc[n+](Cc4cccc(F)c4)cc3)c2c1.[Br-] | 10
COc1ccc2[nH]cc(CCNC(=O)/C=C/c3cc[n+](Cc4ccccc4F)cc3)c2c1.[Br-] | 8.8
N#Cc1ccc(C[n+]2ccc(C(=O)NCCc3c[nH]c4ccccc34)cc2)cc1.[Br-] | > 4.4
O=C(NCCc1c[nH]c2ccccc12)c1ccc[n+](Cc2ccccc2)c1.[Br-] | 0.009

target: T1, Acetylcholinesterase (Homo sapiens, UniProt P22303); conditions: 0.05 to 0.2 uM
T1 sequence (P22303 whole entry): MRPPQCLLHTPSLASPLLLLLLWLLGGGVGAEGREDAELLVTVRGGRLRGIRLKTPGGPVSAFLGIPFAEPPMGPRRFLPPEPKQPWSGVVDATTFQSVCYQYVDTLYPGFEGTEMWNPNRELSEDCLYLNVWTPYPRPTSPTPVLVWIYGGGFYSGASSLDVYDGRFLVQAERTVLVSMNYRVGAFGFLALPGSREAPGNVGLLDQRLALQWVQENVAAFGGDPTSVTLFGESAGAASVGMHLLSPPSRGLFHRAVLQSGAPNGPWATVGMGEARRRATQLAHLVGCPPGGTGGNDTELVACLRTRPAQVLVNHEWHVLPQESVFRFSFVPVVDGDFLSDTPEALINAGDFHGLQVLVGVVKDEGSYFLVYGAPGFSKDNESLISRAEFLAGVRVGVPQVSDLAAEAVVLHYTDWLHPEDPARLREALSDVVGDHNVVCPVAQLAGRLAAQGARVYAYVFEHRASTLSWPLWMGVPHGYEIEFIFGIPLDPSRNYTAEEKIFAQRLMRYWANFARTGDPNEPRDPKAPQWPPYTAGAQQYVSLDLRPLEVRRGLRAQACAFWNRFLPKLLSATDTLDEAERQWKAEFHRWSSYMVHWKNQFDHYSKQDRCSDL

SMILES | inhibition
COc1ccc2[nH]cc(CCNC(=O)/C=C/c3cc[n+](Cc4cccc(F)c4)cc3)c2c1.[Br-] | Active

system: not listed separately; experiment: Antioxidant activity assessed as trolox equivalent of AAPH radical scavenging activity; format: physicochemical; conditions: not given

SMILES | Activity
COc1ccc2[nH]cc(CCNC(C)=O)c2c1 [MELATONIN] | 2 umolequiv/umol

target: Cholinesterase (Homo sapiens, UniProt P06276); conditions: not given
Sequence (P06276 whole entry): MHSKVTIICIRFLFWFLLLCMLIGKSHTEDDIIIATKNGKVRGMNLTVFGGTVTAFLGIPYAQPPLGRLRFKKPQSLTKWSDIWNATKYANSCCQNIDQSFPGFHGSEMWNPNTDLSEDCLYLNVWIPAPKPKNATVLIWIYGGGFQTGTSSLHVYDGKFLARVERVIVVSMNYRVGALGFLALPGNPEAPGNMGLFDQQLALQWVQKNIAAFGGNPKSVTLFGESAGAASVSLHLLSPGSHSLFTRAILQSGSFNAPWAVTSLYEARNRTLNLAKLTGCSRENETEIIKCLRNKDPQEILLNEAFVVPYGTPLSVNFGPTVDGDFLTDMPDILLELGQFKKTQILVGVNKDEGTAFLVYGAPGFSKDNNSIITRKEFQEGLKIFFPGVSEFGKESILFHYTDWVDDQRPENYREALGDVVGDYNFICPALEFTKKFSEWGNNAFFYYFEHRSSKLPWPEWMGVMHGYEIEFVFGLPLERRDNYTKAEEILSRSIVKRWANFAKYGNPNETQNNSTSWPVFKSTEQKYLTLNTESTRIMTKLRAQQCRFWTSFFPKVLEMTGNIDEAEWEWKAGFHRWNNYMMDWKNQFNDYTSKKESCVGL

SMILES | IC50
COc1ccc2[nH]cc(CCNC(=O)c3cc[n+](Cc4ccccc4F)cc3)c2c1.[Br-] | 6.8 µM
COc1ccc2[nH]cc(CCNC(=O)c3cc[n+](Cc4ccc(OC(=O)N(C)C)cc4)cc3)c2c1.[Br-] | 0.08 µM
COc1ccc2[nH]cc(CCNC(=O)c3cc[n+](Cc4cccc(F)c4)cc3)c2c1.[Br-] | 7.9 µM
Cc1ccc(C[n+]2ccc(C(=O)NCCc3c[nH]c4ccccc34)cc2)cc1.[Br-] | 8.9 µM
O=C(NCCc1c[nH]c2ccccc12)c1ccc[n+](Cc2ccccc2F)c1.[Br-] | 0.34 µM
O=C(NCCc1c[nH]c2ccccc12)c1cc[n+](Cc2ccc(F)cc2)cc1.[Br-] | 4.8 µM
COc1ccc2[nH]cc(CCNC(=O)CCc3cc[n+](Cc4cccc(F)c4)cc3)c2c1.[Br-] | 0.72 µM
O=C(NCCc1c[nH]c2ccccc12)c1cc[n+](Cc2cccc(F)c2)cc1.[Br-] | 5.1 µM
COc1ccc2[nH]cc(CCNC(=O)CCc3cc[n+](Cc4ccccc4F)cc3)c2c1.[Br-] | 0.86 µM
O=C(NCCc1c[nH]c2ccccc12)c1cc[n+](Cc2ccccc2F)cc1.[Br-] | 4.1 µM
O=C(NCCc1c[nH]c2ccccc12)c1cc[n+](Cc2ccccc2)cc1.[Br-] | 2.8 µM
Cc1cccc(C[n+]2ccc(C(=O)NCCc3c[nH]c4ccccc34)cc2)c1.[Br-] | 5.8 µM
COc1ccc2[nH]cc(CCNC(=O)CCc3cc[n+](Cc4ccc(F)cc4)cc3)c2c1.[Br-] | 0.65 µM
COc1ccc2[nH]cc(CCNC(=O)c3cc[n+](Cc4ccc(F)cc4)cc3)c2c1.[Br-] | 7.5 µM
COc1ccc2[nH]cc(CCNC(=O)/C=C/c3cc[n+](Cc4ccc(F)cc4)cc3)c2c1.[Br-] | 0.71 µM
COc1ccc2[nH]cc(CCNC(=O)/C=C/c3cc[n+](Cc4cccc(F)c4)cc3)c2c1.[Br-] | 1.1 µM
COc1ccc2[nH]cc(CCNC(=O)/C=C/c3cc[n+](Cc4ccccc4F)cc3)c2c1.[Br-] | 2.3 µM
O=C(NCCc1c[nH]c2ccccc12)c1ccc[n+](Cc2ccccc2)c1.[Br-] | 0.28 µM

system: SH-SY5Y; experiment: Neuroprotective activity against H2O2-induced oxidative stress-associated death in human SH-SY5Y cells assessed as increase in cell viability at 10 uM incubated for 24 hrs prior to H2O2 challenge measured after 24 hrs by MTT assay; format: functional, cell-based; conditions: not given

SMILES | Activity
COc1ccc2[nH]cc(CCNC(C)=O)c2c1 [MELATONIN] | Active

system: SH-SY5Y; experiment: Cytotoxicity against human SH-SY5Y cells assessed as cell survival at 1 to 50 uM after 24 hrs by MTT assay; format: cell-based; conditions: not given

SMILES | Activity
COc1ccc2[nH]cc(CCNC(=O)c3cc[n+](Cc4ccc(OC(=O)N(C)C)cc4)cc3)c2c1.[Br-] | Non-toxic
COc1ccc2[nH]cc(CCNC(=O)/C=C/c3cc[n+](Cc4cccc(F)c4)cc3)c2c1.[Br-] | Non-toxic

target: T1, Acetylcholinesterase; experiment: Potency index, ratio of IC50 for donepezil to IC50 for test compound for inhibition of human recombinant AChE; conditions: not given

SMILES | Ratio IC50
COc1ccc2[nH]cc(CCNC(=O)c3cc[n+](Cc4ccc(OC(=O)N(C)C)cc4)cc3)c2c1.[Br-] | 70

target: T1, Acetylcholinesterase; experiment: Inhibition of human recombinant AChE using acetylthiocholine iodide as substrate preincubated for 5 mins followed by substrate addition by Ellman's method; conditions: not given

SMILES | IC50
COc1ccc2[nH]cc(CCNC(=O)c3cc[n+](Cc4ccccc4F)cc3)c2c1.[Br-] | 3.3 µM
COc1ccc2[nH]cc(CCNC(=O)c3cc[n+](Cc4ccc(OC(=O)N(C)C)cc4)cc3)c2c1.[Br-] | 1.3 µM
COc1ccc2[nH]cc(CCNC(=O)c3cc[n+](Cc4cccc(F)c4)cc3)c2c1.[Br-] | 3.8 µM
Cc1ccc(C[n+]2ccc(C(=O)NCCc3c[nH]c4ccccc34)cc2)cc1.[Br-] | 5.7 µM
O=C(NCCc1c[nH]c2ccccc12)c1ccc[n+](Cc2ccccc2F)c1.[Br-] | 28.6 µM
O=C(NCCc1c[nH]c2ccccc12)c1cc[n+](Cc2ccc(F)cc2)cc1.[Br-] | 3.4 µM
COc1ccc2[nH]cc(CCNC(=O)CCc3cc[n+](Cc4cccc(F)c4)cc3)c2c1.[Br-] | 0.44 µM
O=C(NCCc1c[nH]c2ccccc12)c1cc[n+](Cc2cccc(F)c2)cc1.[Br-] | 3.9 µM
COc1ccc2[nH]cc(CCNC(=O)CCc3cc[n+](Cc4ccccc4F)cc3)c2c1.[Br-] | 0.53 µM
O=C(NCCc1c[nH]c2ccccc12)c1cc[n+](Cc2ccccc2F)cc1.[Br-] | 3.2 µM
O=C(NCCc1c[nH]c2ccccc12)c1cc[n+](Cc2ccccc2)cc1.[Br-] | 4.2 µM
Cc1cccc(C[n+]2ccc(C(=O)NCCc3c[nH]c4ccccc34)cc2)c1.[Br-] | 2.7 µM
COc1ccc2[nH]cc(CCNC(=O)CCc3cc[n+](Cc4ccc(F)cc4)cc3)c2c1.[Br-] | 0.58 µM
COc1ccc2[nH]cc(CCNC(=O)c3cc[n+](Cc4ccc(F)cc4)cc3)c2c1.[Br-] | 5.1 µM
COc1ccc2[nH]cc(CCNC(=O)/C=C/c3cc[n+](Cc4ccc(F)cc4)cc3)c2c1.[Br-] | 0.21 µM
COc1ccc2[nH]cc(CCNC(=O)/C=C/c3cc[n+](Cc4cccc(F)c4)cc3)c2c1.[Br-] | 0.11 µM
COc1ccc2[nH]cc(CCNC(=O)/C=C/c3cc[n+](Cc4ccccc4F)cc3)c2c1.[Br-] | 0.26 µM
N#Cc1ccc(C[n+]2ccc(C(=O)NCCc3c[nH]c4ccccc34)cc2)cc1.[Br-] | 22.9 µM
O=C(NCCc1c[nH]c2ccccc12)c1ccc[n+](Cc2ccccc2)c1.[Br-] | 30.5 µM

system: SH-SY5Y; experiment: Neuroprotective activity against H2O2-induced oxidative stress-associated death in human SH-SY5Y cells assessed as increase in cell viability at 1 to 10 uM incubated for 24 hrs prior to H2O2 challenge measured after 24 hrs by MTT assay; format: functional, cell-based; conditions: not given

SMILES | Activity
COc1ccc2[nH]cc(CCNC(=O)c3cc[n+](Cc4ccc(OC(=O)N(C)C)cc4)cc3)c2c1.[Br-] | Active
COc1ccc2[nH]cc(CCNC(=O)/C=C/c3cc[n+](Cc4cccc(F)c4)cc3)c2c1.[Br-] | Active
